pEC50: −log10 of the molar value.
Molecular target: T1, human FXR (Homo sapiens, UniProt Q96RI1)
T1 construct: expressed in transfected cells; host or cells: HEK293 cells stably carrying a 5xGal4-response-element firefly luciferase reporter, transiently transfected with pcDNA3.1-Gal4-FXR
T1 sequence (Q96RI1 262-486 limits assumed): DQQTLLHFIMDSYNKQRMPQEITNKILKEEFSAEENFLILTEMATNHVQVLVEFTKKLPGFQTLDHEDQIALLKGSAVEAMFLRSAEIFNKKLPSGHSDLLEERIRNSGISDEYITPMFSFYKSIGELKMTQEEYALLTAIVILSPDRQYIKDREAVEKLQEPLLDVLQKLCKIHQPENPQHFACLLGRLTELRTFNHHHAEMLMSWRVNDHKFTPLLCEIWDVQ
Experiment: transient human FXR/Gal4-luciferase reporter assay
Format: cell-based
Conditions: Gal4-hFXR transfected HEK293 reporter cells; relative to 8 μM GW-4064
In short: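 HEK293 cells stably carrying a 5×Gal4-response-element firefly luciferase reporter, transiently transfected overnight with a CMV-driven Gal4 DNA-binding domain/human FXR ligand-binding domain fusion.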

Row | pEC50 | Compound
1 | 6.31 | O=C(O)c1nc(C(F)(F)F)n2cc(N3CCC4(C=C(c5c(-c6ccccc6OC(F)(F)F)noc5C5CC5)C4)CC3)ccc12 [Example 166, 6-(2-(5-Cyclopropyl-3-(2-(trifluoromethoxy)phenyl)isoxazol-4-yl)-7-azaspiro[3.5]non-1-en-7-yl)-3-(trifluoromethyl)imidazo[1,5-a]pyridine-1-carboxylic acid]
2 | 5.51 | CCOc1cc(C(=O)O)nc2ccc(N3CCC4(C=C(c5c(C6CCCCC6)noc5C5CC5)C4)CC3)cc12 [Example 167, 6-(2-(3-Cyclohexyl-5-cyclopropylisoxazol-4-yl)-7-azaspiro[3.5]non-1-en-7-yl)-4-ethoxyquinoline-2-carboxylic acid]
3 | 5.40 | Cn1cc(C(=O)O)c2ccc(N3CCC4(C=C(c5c(C6CCCCC6)noc5C5CC5)C4)CC3)cc21 [Example 168, 6-(2-(3-Cyclohexyl-5-cyclopropylisoxazol-4-yl)-7-azaspiro[3.5]non-1-en-7-yl)-1-methyl-1H-indole-3-carboxylic acid]
4 | 5.89 | Cc1cc(C(=O)O)nc(N2CCC3(C=C(c4c(-c5ccccc5C(F)(F)F)noc4C4CC4)C3)CC2)n1 [Example 169, 2-(2-(5-Cyclopropyl-3-(2-(trifluoromethyl)phenyl)isoxazol-4-yl)-7-azaspiro[3.5]non-1-en-7-yl)-6-methylpyrimidine-4-carboxylic acid]
5 | 5.76 | Cc1c(N2CCC3(C=C(c4c(-c5ccccc5C(F)(F)F)noc4C4CC4)C3)CC2)ccc2cc(C(=O)O)cnc12 [Example 170, 7-(2-(5-Cyclopropyl-3-(2-(trifluoromethyl)phenyl)isoxazol-4-yl)-7-azaspiro[3.5]non-1-en-7-yl)-8-methylquinoline-3-carboxylic acid]
6 | 5.73 | O=C(O)c1ccc(N2CCC3(C=C(c4c(-c5ncccc5Cl)noc4C4CC4)C3)CC2)nc1 [Example 171, 6-(2-(3-(3-Chloropyridin-2-yl)-5-cyclopropylisoxazol-4-yl)-7-azaspiro[3.5]non-1-en-7-yl)nicotinic acid]
7 | 5.63 | Cn1c(C(=O)O)cc2cc(N3CCC4(C=C(c5c(-c6ccccc6OC(F)(F)F)noc5C5CC5)C4)CC3)ncc21 [Example 172, 5-(2-(5-Cyclopropyl-3-(2-(trifluoromethoxy)phenyl)isoxazol-4-yl)-7-azaspiro[3.5]non-1-en-7-yl)-1-methyl-1H-pyrrolo[2,3-c]pyridine-2-carboxylic acid]
8 | 5.55 | Cn1nc(N2CCC3(C=C(c4c(-c5ccccc5OC(F)(F)F)noc4C4CC4)C3)CC2)c2ncc(C(=O)O)cc21 [Example 173, 3-(2-(5-Cyclopropyl-3-(2-(trifluoromethoxy)phenyl)isoxazol-4-yl)-7-azaspiro[3.5]non-1-en-7-yl)-1-methyl-1H-pyrazolo[4,3-b]pyridine-6-carboxylic acid]
9 | 6.63 | Cn1nc(C(=O)O)c2cc(N3CCC4(C=C(c5c(-c6ccccc6OC(F)(F)F)noc5C5CC5)C4)CC3)ccc21 [Example 174, 5-(2-(5-Cyclopropyl-3-(2-(trifluoromethoxy)phenyl)isoxazol-4-yl)-7-azaspiro[3.5]non-1-en-7-yl)-1-methyl-1H-indazole-3-carboxylic acid]
10 | 5.49 | Cn1nc(C#N)c2ccc(N3CCC4(C=C(c5c(-c6ccccc6OC(F)(F)F)noc5C5CC5)C4)CC3)cc21 [Example 175, 6-(2-(5-Cyclopropyl-3-(2-(trifluoromethoxy)phenyl)isoxazol-4-yl)-7-azaspiro[3.5]non-1-en-7-yl)-1-methyl-1H-indazole-3-carbonitrile]
11 | 6.92 | O=C(O)c1cnc2nc(N3CCC4(C=C(c5c(-c6c(Cl)cccc6Cl)noc5C5CC5)C4)CC3)sc2c1 [Example 177, 2-(2-(5-Cyclopropyl-3-(2,6-dichlorophenyl)isoxazol-4-yl)-7-azaspiro[3.5]non-1-en-7-yl)thiazolo[4,5-b]pyridine-6-carboxylic acid]
12 | 6.76 | O=C(O)c1cnc2cc(N3CCC4(C=C(c5c(-c6ccccc6C(F)(F)F)noc5C5CC5)C4)CC3)ccc2n1 [Example 178, 6-(2-(5-Cyclopropyl-3-(2-(trifluoromethyl)phenyl)isoxazol-4-yl)-7-azaspiro[3.5]non-1-en-7-yl)quinoxaline-2-carboxylic acid]
13 | 7.89 | O=C(NS(=O)(=O)C1CC1)c1cc(F)c2nc(N3CCC4(C=C(c5c(-c6c(Cl)cccc6Cl)noc5C5CC5)C4)CC3)sc2c1 [Example 179, 2-(2-(5-Cyclopropyl-3-(2,6-dichlorophenyl)isoxazol-4-yl)-7-azaspiro[3.5]non-1-en-7-yl)-N-(cyclopropylsulfonyl)-4-fluorobenzo[d]thiazole-6-carboxamide]
14 | 7.46 | CS(=O)(=O)NC(=O)c1cc(F)c2nc(N3CCC4(C=C(c5c(-c6c(Cl)cccc6Cl)noc5C5CC5)C4)CC3)sc2c1 [Example 180, 2-(2-(5-Cyclopropyl-3-(2,6-dichlorophenyl)isoxazol-4-yl)-7-azaspiro[3.5]non-1-en-7-yl)-4-fluoro-N-(methylsulfonyl)benzo[d]thiazole-6-carboxamide]
15 | 7.22 | O=C(NS(=O)(=O)C1CC1)c1cc(F)c2nc(N3CCC4(C=C(c5c(-c6c(Cl)cncc6Cl)noc5C5CC5)C4)CC3)sc2c1 [Example 181, 2-(2-(5-Cyclopropyl-3-(3,5-dichloropyridin-4-yl)isoxazol-4-yl)-7-azaspiro[3.5]non-1-en-7-yl)-N-(cyclopropylsulfonyl)-4-fluorobenzo[d]thiazole-6-carboxamide]
16 | 6.16 | CS(=O)(=O)NC(=O)c1cc(F)c2nc(N3CCC4(C=C(c5c(-c6c(Cl)cncc6Cl)noc5C5CC5)C4)CC3)sc2c1 [Example 182, 2-(2-(5-Cyclopropyl-3-(3,5-dichloropyridin-4-yl)isoxazol-4-yl)-7-azaspiro[3.5]non-1-en-7-yl)-4-fluoro-N-(methylsulfonyl)benzo[d]thiazole-6-carboxamide]
17 | 7.26 | O=C(NS(=O)(=O)C1CC1)c1cc(C(F)(F)F)c2cc(N3CCC4(C=C(c5c(-c6c(Cl)cncc6Cl)noc5C5CC5)C4)CC3)ccc2n1 [Example 183, 6-(2-(5-Cyclopropyl-3-(3,5-dichloropyridin-4-yl)isoxazol-4-yl)-7-azaspiro[3.5]non-1-en-7-yl)-N-(cyclopropylsulfonyl)-4-(trifluoromethyl)quinoline-2-carboxamide]
18 | 7.80 | CS(=O)(=O)NC(=O)c1cc(OC(F)F)c2cc(N3CCC4(C=C(c5c(-c6c(Cl)cncc6Cl)noc5C5CC5)C4)CC3)ccc2n1 [Example 185, 6-(2-(5-Cyclopropyl-3-(3,5-dichloropyridin-4-yl)isoxazol-4-yl)-7-azaspiro[3.5]non-1-en-7-yl)-4-(difluoromethoxy)-N-(methylsulfonyl)quinoline-2-carboxamide]
19 | 7.89 | CS(=O)(=O)NC(=O)c1cc(OC(F)F)c2cc(N3CCC4(C=C(c5c(-c6ccccc6C(F)(F)F)noc5C5CC5)C4)CC3)ccc2n1 [Example 186, 6-(2-(5-Cyclopropyl-3-(2-(trifluoromethyl)phenyl)isoxazol-4-yl)-7-azaspiro[3.5]non-1-en-7-yl)-4-(difluoromethoxy)-N-(methylsulfonyl)quinoline-2-carboxamide]
20 | 7.20 | CS(=O)(=O)NC(=O)c1cc(OC(F)F)c2cc(N3CCC4(C=C(c5c(-c6cnccc6C(F)(F)F)noc5C5CC5)C4)CC3)ccc2n1 [Example 187, 6-(2-(5-Cyclopropyl-3-(4-(trifluoromethyl)pyridin-3-yl)isoxazol-4-yl)-7-azaspiro[3.5]non-1-en-7-yl)-4-(difluoromethoxy)-N-(methylsulfonyl)quinoline-2-carboxamide]
21 | 7.37 | O=C(NS(=O)(=O)C1CC1)c1cc(OC(F)F)c2cc(N3CCC4(C=C(c5c(-c6cnccc6C(F)(F)F)noc5C5CC5)C4)CC3)ccc2n1 [Example 188, 6-(2-(5-Cyclopropyl-3-(4-(trifluoromethyl)pyridin-3-yl)isoxazol-4-yl)-7-azaspiro[3.5]non-1-en-7-yl)-N-(cyclopropylsulfonyl)-4-(difluoromethoxy)quinoline-2-carboxamide]
22 | 7.32 | O=C(NS(=O)(=O)C1CC1)c1cc(OC(F)F)c2cc(N3CCC4(C=C(c5c(-c6ncccc6Cl)noc5C5CC5)C4)CC3)ccc2n1 [Example 189, 6-(2-(3-(3-Chloropyridin-2-yl)-5-cyclopropylisoxazol-4-yl)-7-azaspiro[3.5]non-1-en-7-yl)-N-(cyclopropylsulfonyl)-4-(difluoromethoxy)quinoline-2-carboxamide]
23 | 6.77 | CS(=O)(=O)NC(=O)c1cc(OC(F)F)c2cc(N3CCC4(C=C(c5c(-c6ncccc6Cl)noc5C5CC5)C4)CC3)ccc2n1 [Example 190, 6-(2-(3-(3-Chloropyridin-2-yl)-5-cyclopropylisoxazol-4-yl)-7-azaspiro[3.5]non-1-en-7-yl)-4-(difluoromethoxy)-N-(methylsulfonyl)quinoline-2-carboxamide]
24 | 6.85 | O=C(NS(=O)(=O)C1CC1)c1cc(OC(F)F)c2cc(N3CCC4(C=C(c5c(-c6cccnc6C(F)(F)F)noc5C5CC5)C4)CC3)ccc2n1 [Example 191, 6-(2-(5-Cyclopropyl-3-(2-(trifluoromethyl)pyridin-3-yl)isoxazol-4-yl)-7-azaspiro[3.5]non-1-en-7-yl)-N-(cyclopropylsulfonyl)-4-(difluoromethoxy)quinoline-2-carboxamide]
25 | 6.62 | CS(=O)(=O)NC(=O)c1cc(OC(F)F)c2cc(N3CCC4(C=C(c5c(-c6cccnc6C(F)(F)F)noc5C5CC5)C4)CC3)ccc2n1 [Example 192, 6-(2-(5-Cyclopropyl-3-(2-(trifluoromethyl)pyridin-3-yl)isoxazol-4-yl)-7-azaspiro[3.5]non-1-en-7-yl)-4-(difluoromethoxy)-N-(methylsulfonyl)quinoline-2-carboxamide]

From patent US11078198B2 (BRISTOL-MYERS SQUIBB COMPANY, priority 2017, dated 2021)
